Results: patent publication US20050038112A1, “Simplified sarcondictyn derivatives as anti-tumor agents” (priority 2001, published 2005)
pEC50: −log10 of the molar value. Like-named read-outs stand apart in the source and are kept apart here.

Columns and labels:
[1] = target: T1, Pig brain tubulin (Sus scrofa, UniProt P02554); test: Microtubule assembly and disassembly assay (tubulin polymerizing activity); type: biochemical; conditions: 0.5 mg/ml tubulin, 37° C., turbidity at 340 nm; for pEC50: effective dose that induces 50% tubulin polymerisation, read-out: ED50 (the source's name); for ED90: effective dose that induces 90% tubulin polymerisation
T1 construct: Pig brain tubulin was prepared by two cycles of assembly and disassembly; from tissue; host or cells: pig brain
Method: Pig brain tubulin was prepared by two cycles of assembly and disassembly and it was stored in liquid nitrogen in Microtubule Assembly Buffer (MAB: 0.1 M MES, 2.5 mM EGTA, 0.5 mM MgSO4, 0.1 mM EDTA, 0.1 mM DTT pH 6.4). Assembly was monitored by the method of Gaskin et al. (Gaskin F, Cantor C R, Shelanski M L, 1974,: Turbidimetric studies of the in vitro assembly and disassembly of porcine neurotubules. J. Mol. Biol. 89: 737-758). The cuvette (1 cm path) containing 0.5 mg/ml tubulin and 1 mM GTP was shifted to 37° C. and continuous turbidity measurements were made at 340 nm on a spectrophotometer equipped with an automatic recorder and a thermostatically regulated sample chamber. After 30 min CaCl2 (5 mM) was added and disassembly was monitored for 10 mm as decreased turbidity. Scalar doses of test compounds were monitored at regular intervals of 15 min.
(ED50 and ED90) was calculated on this curve.

[2] = system: Human colon carcinoma HCT116 cells; test: Cytotoxicity on HCT116 tumor cell line; type: cell-based
[3] = system: A2780 cells; test: Cytotoxicity (SRB colorimetric assay) on A2780 cells; type: cell-based; conditions: 72 h incubation, concentration inhibiting cell proliferation by 50%
Method: (§1) A2780 cells (2000/well) were seeded in multiwell plates (96 wells) in the presence of 200 μl of the complete medium RPMI 1640+10% FCS. After 24 h, the cells were treated with the compounds: the compounds' solution (200×) was prepared in DMSO 100% and 1 μl/well was added. 5 scalar concentrations for each compound were tested in four replicates. The cells were incubated at 37° C., 5% CO2 for 72 h.
(§2) Colorimetric assay (SRB: sulforhodamine B): cell cultures were fixed with trichloroacetic acid, stained with 0.4% SRB dissolved in 1% acetic acid. Unbound dye was removed by four washes with 1% acetic acid and protein-bound dye was extracted with 10 mM Tris base for determination of optical density in a 96-well microtiter plate reader. IC50 and IC90 (concentration inhibiting cell proliferation by 50 or 90%) were determined by data analysis in the Microsoft Excel 97 program.

[4] = system: Human colon carcinoma HT29 cells; test: Cytotoxicity on HT29 tumor cell line; type: cell-based
Method: as §1, §2
Human colon carcinoma HT29 cells were also used to study the cytotoxicity of the compounds of the present invention.

T1 sequence (P02554 whole entry): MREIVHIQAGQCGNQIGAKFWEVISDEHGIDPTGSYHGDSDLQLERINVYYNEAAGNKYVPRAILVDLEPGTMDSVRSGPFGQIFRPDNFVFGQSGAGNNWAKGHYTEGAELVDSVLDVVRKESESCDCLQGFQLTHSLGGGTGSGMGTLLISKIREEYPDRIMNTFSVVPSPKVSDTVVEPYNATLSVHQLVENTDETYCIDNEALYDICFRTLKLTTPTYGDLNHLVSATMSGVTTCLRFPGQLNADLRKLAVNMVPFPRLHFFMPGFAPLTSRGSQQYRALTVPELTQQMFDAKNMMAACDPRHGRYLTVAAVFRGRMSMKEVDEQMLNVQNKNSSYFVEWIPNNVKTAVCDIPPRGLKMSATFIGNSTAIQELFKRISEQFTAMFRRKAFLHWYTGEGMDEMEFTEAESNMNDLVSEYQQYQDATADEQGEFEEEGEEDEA
T1 sequence (P02550 whole entry partner): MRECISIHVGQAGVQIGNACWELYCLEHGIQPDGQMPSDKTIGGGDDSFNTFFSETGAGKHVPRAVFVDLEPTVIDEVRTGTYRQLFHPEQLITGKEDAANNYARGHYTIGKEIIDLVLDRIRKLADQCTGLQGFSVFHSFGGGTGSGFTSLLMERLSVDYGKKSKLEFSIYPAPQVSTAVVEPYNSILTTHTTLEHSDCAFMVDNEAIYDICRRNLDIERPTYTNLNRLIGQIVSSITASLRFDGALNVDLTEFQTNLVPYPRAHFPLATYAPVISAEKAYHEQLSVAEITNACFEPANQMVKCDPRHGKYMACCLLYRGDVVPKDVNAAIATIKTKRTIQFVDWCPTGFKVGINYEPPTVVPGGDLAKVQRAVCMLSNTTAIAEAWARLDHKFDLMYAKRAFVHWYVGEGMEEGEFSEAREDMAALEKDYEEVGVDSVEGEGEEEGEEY

Q: How did the pEC50 [1] turn out when `CO[C@H]1C=CC[C@@H](OC(=O)/C=C/c2cn(C)cn2)C[C@H]2C(C)=CC[C@H](C(C)C)[C@H]2C[C@@H]1OC(=O)C(C)(C)C` [Example 27, (E)-3-(1-Methyl-1H-imidazol-4-yl)-acrylic acid [(1R,4aR,6R,10S,11S,12aR)-11-(2,2-dimethyl-propionyloxy)-1-isopropyl-10-methoxy-4-methyl-1,2,4a,5,6,7,10,11,12,12a-decahydro-benzocyclodecen-6-yl}ester] was run?
A: 5.52

Q: And the IC50 ([2]; Homo sapiens, HCT-116)?
A: 10 to 25 µM

Q: And the IC50 ([3]; Homo sapiens)?
A: < 5 µM

Q: What about the IC50 ([4]; Homo sapiens, HT-29) of the same molecule?
A: 7 µM

Q: With `CC1=CC[C@H](C(C)C)[C@H]2CC(=O)C/C=C\C[C@@H](OC(=O)/C=C/c3cn(C)cn3)C[C@@H]12` [Example 16, (E)-3-(1-Methyl-1H-imidazol-4-yl)-acrylic acid [(1R,4aR,6R,12aR)-1-isopropyl-4-methyl-11-oxo-1,2,4a,5,6,7,10,11,12,12a-decahydro-benzocyclodecen-6-enyl]ester] as the molecule, how does the pEC50 [1] read?
A: 6.70

Q: And the “ED90” value [1]?
A: 1.2 µM

Q: What about the IC50 ([2]; Homo sapiens, HCT-116) of the same molecule?
A: 35 to 60 µM

Q: What about the IC50 ([3]; Homo sapiens) of the same molecule?
A: 40 µM

Q: And the IC50 ([4]; Homo sapiens, HT-29)?
A: 30 µM

Q: Which results are given for `C=C1C/C=C\C[C@@H](OC(=O)/C=C/c2cn(C)cn2)C[C@H]2C(C)=CC[C@H](C(C)C)[C@H]2C1` [Example 19]?
A: pEC50 [1]: 5.30; ED90 [1]: 16.0 µM; IC50 ([2]; Homo sapiens, HCT-116): 5 µM; IC50 ([3]; Homo sapiens): 4 µM; IC50 ([4]; Homo sapiens, HT-29): 6 µM

Q: With `CC(=O)O[C@H]1C=CC[C@@H](OC(=O)/C=C/c2cn(C)cn2)C[C@H]2C(C)=CC[C@H](C(C)C)[C@H]2C[C@@H]1OC(=O)C(C)(C)C` [Example 30, (E)-3-(1-Methyl-1H-imidazol-4-yl)-acrylic acid [(1R,4aR,6R,10S,11S,12aR)-10-acetoxy-11-(2,2-dimethyl-propionyloxy)-1-isopropyl-4-methyl-1,2,4a5,6,7,10,11,12,12a-decahydro-benzocyclodecen-6-yl]ester] as the molecule, how does the pEC50 [1] read?
A: 6.00

Q: What about the “ED90” value [1] of the same molecule?
A: 1.7 µM

Q: `CC(=O)O[C@@H]1C/C=C\C[C@@H](OC(=O)/C=C/c2cn(C)cn2)C[C@H]2C(C)=CC[C@H](C(C)C)[C@H]2C1` [Example 12, 3-(1-Methyl-1H-imidazol-4-yl)-acrylic acid 11-acetoxy-1-isopropyl-4-methyl-1,2,4a,5,6,7,10,11,12,12a-decahydro-benzocyclodecen-6-yl ester] was tested. Which pEC50 [1] did it give?
A: 5.70

Q: And the “ED90” value [1]?
A: 10.0 µM

Q: And the IC50 ([2]; Homo sapiens, HCT-116)?
A: 12 µM

Q: What about the IC50 ([3]; Homo sapiens) of the same molecule?
A: 4 µM

Q: What does the source list for `CC1=CC[C@H](C(C)C)[C@H]2C[C@H](OC(=O)C(C)(C)C)[C@@H](O)C=CC[C@@H](OC(=O)C=Cc3cn(C)cn3)C[C@@H]12` [Example 34, 3-(1-Methyl-1H-imidazol-4-yl)-acrylic acid [(1R,4aR,6R,10S,10S,12aR)-11-(2,2-dimethyl-propionyloxy)-10-hydroxy-1-isopropyl-4-methyl-1,2,4a,5,6,7,10,11,12,12a-decahydro-benzocyclodecen-6-yl}ester]?
A: pEC50 [1]: 6.00; ED90 [1]: 1.8 µM; IC50 [2]: 4 µM; IC50 [3]: 4 µM; IC50 [4]: 5 µM
